Patent US20260374766A1, “METHODS FOR TREATING CANCER” (Antares Therapeutics, Inc., priority 2022, published 2026)
Read-outs that look alike come from different tables or passages of the source.

How the values were obtained:
p53 Y220C = p53 Y220C (Homo sapiens, UniProt P04637, Y220C); test: Luciferase Reporter Assay (Luc), p53 response element, NClH1299 cells with inducible p53 Y220C; format: cell-based; conditions: luciferase reporter, NClH1299 inducible p53 Y220C, 6 hour; for AC50: read-out: Luc P53 Y220C AC50
In short: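 Steps: seed 5,000 cells/well; induce mutant p53 with 0.5 ug/mL doxycycline for 24 h; treat with compound 6 h; add equal volume One-Glo, shake 5 min at room temperature; measure luciferase immediately.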

NUGC3 p53 Y220C = test: Cell Proliferation Assay (CellTiter-Glo, CTG), NUGC3 p53 Y220C; format: cell-based; conditions: Homo sapiens, NUGC-3, 120 h, CellTiter-Glo, 5 days
In short: (§1)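 NClH1299 lines stably transduced with Tet-inducible p53 Y220C or R273H, plus NUGC3, were treated with compound for 5 days at 250-500 cells/well. IC50 derived from CellTiter-Glo luminescent signal after 10 min room-temperature incubation.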

[1] = biological target: T1, p53 Y220C mutant protein (amino acid residues 94-293) (Homo sapiens, UniProt P04637, Y220C); test: Surface Plasmon Resonance (SPR) assay, Kd_kinetic; format: binding; conditions: SPR, p53 Y220C, read-out: SPR P53 Y220C KD kinetic
T1 construct: p53 Y220C mutant protein (amino acid residues 94-293)
In short: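 Temperature held at 16 or 20 °C during Biacore 8K runs. Buffer: 50 mM Tris, pH 7.5, 100 mM NaCl, 1 mM DTT, 0.01% Brij35, 0.05% Tween-20, 1% DMSO.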

H1299 p53 Y220C = test: Cell Proliferation Assay (CellTiter-Glo, CTG), H1299 p53 Y220C (NClH1299-inducible p53 Y220C); format: cell-based; conditions: Homo sapiens, NCI-H1299, 120 h, CellTiter-Glo, 5 days
In short: as §1

[2] = biological target: T1, p53 Y220C mutant protein (amino acid residues 94-293); test: Thermal Shift Assay (TSA), dTM; format: binding; conditions: for ΔTm at 100 µM: 100 uM compound, read-out: TSA P53 Y220C dTM (100 uM); for ΔTm at 10 µM: 10 uM compound
In short: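 5 μM protein + 10 μM or 100 μM cpd, 3 h, 20 °C; 20 mM HEPES pH7.4, 100 mM NaCl, 0.01% Pluronic F-127, 1% DMSO, Sypro Orange 400-fold dil. Ramp 30→50 °C, 0.03 °C/s. TM by Boltzmann two-state fit.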

H1299 p53 R273H = test: Cell Proliferation Assay (CellTiter-Glo, CTG), H1299 p53 R273H (NClH1299-inducible p53 R273H); format: cell-based; conditions: Homo sapiens, NCI-H1299, 120 h, CellTiter-Glo, 5 days
In short: as §1

[3] = 10 uM tool compound as positive control
[4] = thermal shift, read-out: TSA P53 Y220C dTM (10 uM)
[5] = NClH1299-inducible p53 Y220C cells
[6] = p53 Y220C, read-out: TSA P53 Y220C dTM
[7] = NClH1299-inducible p53 R273H cells

Row | Compound | Emax (p53 Y220C; [3]) | AC50 (p53 Y220C) | IC50 (NUGC3 p53 Y220C; NUGC3 p53 Y220C) | Kd ([1]; kinetic KD) | IC50 (H1299 p53 Y220C; H1299 p53 Y220C) | ΔTm at 100 µM ([2]; thermal shift) | IC50 (H1299 p53 R273H; H1299 p53 R273H) | ΔTm at 10 µM [2, 4] | AC50 (p53 Y220C; AC50) | Emax (p53 Y220C; Emax) | IC50 (NUGC3 p53 Y220C; NUGC3 cells) | Kd [1] | IC50 (H1299 p53 Y220C; [5]) | ΔTm at 10 µM [2, 6] | IC50 (H1299 p53 R273H; [7])
1 | COc1cc(S(C)(=O)=O)ccc1NCC#Cc1nc2c(NC3CCOCC3)cccn2c1CC(F)(F)F [Example 3, 2-{3-[(4-methanesulfonyl-2-methoxyphenyl)amino]prop-1-yn-1-yl}-N-(oxan-4-yl)-3-(2,2,2-trifluoroethyl)imidazo[1,2-a]pyridin-8-amine] | 70 to 80% | 1500 to 3000 nM | > 3000 nM | 10 to 100 nM | 1500 to 3000 nM | ≥ 10 °C | ≥ 10000 nM |  |  |  |  |  |  |  | 
2 | COc1cc(S(C)(=O)=O)ccc1NCC#Cc1nc2c(N[C@@H]3C[C@H]4CC[C@H](N4)[C@@H]3F)cccn2c1SC(F)(F)F [Example 131] | 70 to 80% | < 750 nM | < 750 nM | < 10 nM | < 750 nM | ≥ 10 °C | 5000 to 8000 nM | ≥ 10 °C |  |  |  |  |  |  | 
3 | CCc1c(C#CCNc2ccc(S(C)(=O)=O)cc2OC)nc2c(N[C@@H]3CCN(C)C[C@@H]3F)cccn12 [Example 15, (3S,4R)—N-(3-ethyl-2-{3-[(4-methanesulfonyl-2-methoxyphenyl)amino]prop-1-yn-1-yl}imidazo[1,2-a]pyridin-8-yl)-3-fluoro-1-methylpiperidin-4-amine] | < 70% | 1500 to 3000 nM | 1500 to 3000 nM | 10 to 100 nM | 1500 to 3000 nM | 5 to 10 °C | 8000 to 10000 nM |  |  |  |  |  |  |  | 
4 | CNC(=O)c1ccc(NCC#Cc2nc3c(N[C@H]4CCC(=O)N(C)C4)cccn3c2SC(F)(F)F)c(OC)c1 [Example 187] | 80 to 90% | < 750 nM | < 750 nM | < 10 nM | < 750 nM | ≥ 10 °C | 5000 to 8000 nM | ≥ 10 °C |  |  |  |  |  |  | 
5 | COc1cc(C(=O)N2CCC2)ccc1NCC#Cc1nc2c(N[C@@H]3CCN(C)C[C@@H]3F)cccn2c1SC(F)(F)F [Example 87, (3S,4R)—N-[2-(3-{[4-(azetidine-1-carbonyl)-2-methoxyphenyl]amino}prop-1-yn-1-yl)-3-[(trifluoromethyl)sulfanyl]imidazo[1,2-a]pyridin-8-yl]-3-fluoro-1-methylpiperidin-4-amine] | 80 to 90% | < 750 nM | < 750 nM | < 10 nM | < 750 nM | ≥ 10 °C | 8000 to 10000 nM |  |  |  |  |  |  |  | 
6 | COc1cc(C(=O)NC2CC2)ccc1NCC#Cc1nc2c(N[C@@H]3CCN(C)C[C@@H]3F)cccn2c1CC(F)(F)F [Example 49, N-cyclopropyl-4-{[3-(8-{[(3S,4R)-3-fluoro-1-methylpiperidin-4-yl]amino}-3-(2,2,2-trifluoroethyl)imidazo[1,2-a]pyridin-2-yl)prop-2-yn-1-yl]amino}-3-methoxybenzamide] | 70 to 80% | 750 to 1500 nM | 750 to 1500 nM | 10 to 100 nM | 750 to 1500 nM | ≥ 10 °C | 8000 to 10000 nM |  |  |  |  |  |  |  | 
7 | COc1cc(P(C)(C)=O)ccc1NCC#Cc1cc2c(N[C@@H]3CCN(C)C[C@@H]3F)cccn2c1SC(F)(F)F [Example 346] |  |  |  |  |  |  |  |  | < 750 nM | > 90% | < 750 nM | < 10 nM | < 750 nM | ≥ 10 °C | 8000 to 10000 nM
8 | CNC(=O)c1ccc(OC)c(NCC#Cc2cc3c(N[C@@H]4CCN(C)C[C@@H]4F)cccn3c2SC(F)(F)F)c1 [Example 124, 3-{[3-(8-{[(3S,4R)-3-fluoro-1-methylpiperidin-4-yl]amino}-3-[(trifluoromethyl)sulfanyl]indolizin-2-yl)prop-2-yn-1-yl]amino}-4-methoxy-N-methylbenzamide] | > 90% | < 750 nM | < 750 nM | < 10 nM | < 750 nM |  | 5000 to 8000 nM | ≥ 10 °C |  |  |  |  |  |  | 
9 | CNC(=O)c1ccc(NCC#Cc2cc3c(N[C@@H]4CCN(C)C[C@@H]4F)cccn3c2SC(F)(F)F)c(OC)c1 [Example 126, 4-{[3-(8-{[(3S,4R)-3-fluoro-1-methylpiperidin-4-yl]amino}-3-[(trifluoromethyl)sulfanyl]indolizin-2-yl)prop-2-yn-1-yl]amino}-3-methoxy-N-methylbenzamide] | > 90% | < 750 nM | < 750 nM | < 10 nM | < 750 nM |  | 8000 to 10000 nM | ≥ 10 °C |  |  |  |  |  |  | 
10 | CNC(=O)c1ccc(OC)c(NCC#Cc2nc3c(N[C@@H]4CCN(CCOC)C[C@@H]4F)cccn3c2SC(F)(F)F)c1 [Example 296] |  |  |  |  |  |  |  |  | < 750 nM | 80 to 90% | < 750 nM | < 10 nM | < 750 nM | ≥ 10 °C | ≥ 10000 nM
11 | CNC(=O)c1ccc(NCC#Cc2nc3c(N[C@@H]4CCN(C)C(=O)C4)cccn3c2SC(F)(F)F)c(OC)c1 [Example 169] | 70 to 80% | > 3000 nM | > 3000 nM | 10 to 100 nM | > 3000 nM | 5 to 10 °C | ≥ 10000 nM | 5 to 10 °C |  |  |  |  |  |  | 
12 | CNC(=O)c1ccc(OC)c(NCC#Cc2nn3c(N[C@@H]4CN(C)C[C@@H]4F)cccc3c2SC(F)(F)F)c1 [Example 252] |  |  |  |  |  |  |  |  | < 750 nM | 80 to 90% | < 750 nM | < 10 nM | < 750 nM | ≥ 10 °C | ≥ 10000 nM
13 | CNC(=O)c1ccc(NCC#Cc2nc3c(NC4CCN(C)CC4)cc(NC(=O)OC(C)(C)C)cn3c2CC(F)(F)F)c(OC)c1 [Example 39, tert-butyl N-[2-(3-{[2-methoxy-4-(methylcarbamoyl)phenyl]amino}prop-1-yn-1-yl)-8-[(1-methylpiperidin-4-yl)amino]-3-(2,2,2-trifluoroethyl)imidazo[1,2-a]pyridin-6-yl]carbamate] | < 70% | > 3000 nM | 1500 to 3000 nM | > 1000 nM | > 3000 nM | 1 to 5 °C | 5000 to 8000 nM |  |  |  |  |  |  |  | 
14 | CNC(=O)c1cc(F)c(OC)c(NCC#Cc2nc3c(N[C@@H]4CCNC[C@@H]4F)cccn3c2SC(F)(F)F)c1 [Example 304] |  |  |  |  |  |  |  |  | < 750 nM | > 90% | < 750 nM | < 10 nM | < 750 nM | ≥ 10 °C | < 5000 nM
15 | CNC(=O)c1ccc(OC)c(NCC#Cc2cc3c(N[C@@H]4CCN(C)C[C@@H]4F)nccn3c2SC(F)F)c1 [Example 321] |  |  |  |  |  |  |  |  | < 750 nM | > 90% | < 750 nM | < 10 nM | < 750 nM | ≥ 10 °C | ≥ 10000 nM
16 | CNC(=O)c1ccc(NCC#Cc2nc3c(N[C@H]4Cc5cncn5C4)cccn3c2SC(F)(F)F)c(OC)c1 [Example 184] | 70 to 80% | 1500 to 3000 nM | 750 to 1500 nM | < 10 nM | 1500 to 3000 nM | ≥ 10 °C | 5000 to 8000 nM | 5 to 10 °C |  |  |  |  |  |  | 
17 | CNC(=O)c1cnc(OC)c(NCC#Cc2cc3c(N[C@@H]4CN(C)C[C@@H]4F)cccn3c2SC(F)(F)F)c1 [Example 338] |  |  |  |  |  |  |  |  | < 750 nM | > 90% | < 750 nM | < 10 nM | < 750 nM | ≥ 10 °C | 5000 to 8000 nM
18 | CNC(=O)c1ccc(NCC#Cc2nc3c(N[C@@H]4CCN(C)C[C@@H]4F)cccn3c2CC(F)(F)F)cn1 [Example 52, 5-{[3-(8-{[(3S,4R)-3-fluoro-1-methylpiperidin-4-yl]amino}-3-(2,2,2-trifluoroethyl)imidazo[1,2-a]pyridin-2-yl)prop-2-yn-1-yl]amino}-N-methylpyridine-2-carboxamide] | 70 to 80% | > 3000 nM | > 3000 nM | 10 to 100 nM | 1500 to 3000 nM | 5 to 10 °C | ≥ 10000 nM |  |  |  |  |  |  |  | 
